What was measured:
[1] = test system: E. coli K12; assay type: cell-based; conditions: 20 μM compound, anti-alpha galactosyl IgG purified from human IVIG, 42 μg/mL
Description: Antibody Recruitment Assay by Flow Cytometry Using Anti Alpha-Galactosyl IgG Antibody
A secondary FITC labelled anti-human IgG antibody was used to detect binding of alpha-galactosyl to the compound.
(§1) The assays were carried out in polystyrene 96-well U bottom plates (Costar). The 96-well plates were pre-blocked with casein blocking buffer (Thermo Fisher 37528) and then washed three times with (HBSS+/+) (Life Technologies 14025-050) prior to assay. E. coli K12 (Public Health England, NCTC 10538) were grown in LB broth (Fisher BP1426-500) to late exponential phase. Subsequently, the bacteria were centrifuged at 10 000 rpm for 5 minutes and resuspended HBSS+/+ at a bacterial density of 2*10^9 CFU/mL. […] After a final wash of 3×200 μL HBSS+/+ the bacteria were resuspended in 200 μL HBSS+/+ and evaluated on a FC500 (Beckman Coulter). Bacteria were live gated in the FL-4 channel and median fluorescent shift was recorded in the FL-1 channel. Data from all samples were analysed in the Kaluza software package (Beckman Coulter). […]
(§2) The fold shift over background was calculated by dividing the Median Fluorescent Intensity obtained in the presence 20 μM Examples by the Median Fluorescence Intensity obtained in the absence of Examples. The shift in fluorescence intensity (FITC) occurs due to the binding event at each end of the molecule.

[2] = test system: E. coli K12; assay type: cell-based; conditions: 20 μM compound, human IgM M86 antibody 25 μg/mL, FC500, Method 1
Description: Antibody Recruitment Assay by Flow Cytometry Using Anti-Alpha-Galactosyl IgM Antibody
A secondary FITC labelled anti-human IgM antibody was used to detect binding of anti-alpha-galactosyl to the compound.
as §1, with “and resuspended in HBSS+/+ at” for “and resuspended HBSS+/+ at”
as §2

SMILES: CCCCCCCCC(=O)N[C@@H](CCNC(=O)c1cc(OCC(=O)NCCCO[C@@H]2OC(CO)[C@@H](O[C@@H]3OC(CO)[C@H](O)C(O[C@H]4OC(CO)[C@H](O)C(O)C4O)C3O)C(O)C2NC(C)=O)cc(-c2cc(OCC(=O)NCCCO[C@@H]3OC(CO)[C@@H](O[C@@H]4OC(CO)[C@H](O)C(O[C@H]5OC(CO)[C@H](O)C(O)C5O)C4O)C(O)C3NC(C)=O)cc(OCC(=O)NCCCO[C@@H]3OC(CO)[C@@H](O[C@@H]4OC(CO)[C@H](O)C(O[C@H]5OC(CO)[C@H](O)C(O)C5O)C4O)C(O)C3NC(C)=O)c2)c1)C(=O)N[C@H](C(=O)N[C@@H](CCN)C(=O)N[C@H]1CCNC(=O)[C@H]([C@@H](C)O)NC(=O)[C@H](CCN)NC(=O)[C@H](CCN)NC(=O)[C@H](CC(C)C)NC(=O)[C@@H](Cc2ccccc2)NC(=O)[C@H](CCN)NC1=O)[C@@H](C)O (some centres unmarked) [Example 10]
- Anti-alphagalactosyl IgG recruitment at 20 μM (Median Fold shift over vehicle) [1]: 1 fold
- Anti-alpha galactosyl IgM recruitment at 20 μM (Median Fold shift over vehicle) [2]: 2 fold
